# Assay results published in ChEMBL document CHEMBL3044572, “Discovery of 2-(4-cyano-3-trifluoromethylphenyl amino)-4-(4-quinazolinyloxy)-6-piperazinyl(piperidinyl)-s-triazines as potential antibacterial agents” (2012).
# Active and inactive are the calls of the source. The calls are words filed in the database; no cut-off is given here.
# Key:
# [1] = tested on: Aspergillus clavatus; test: Antimicrobial activity against Aspergillus clavatus MTCC 1323 by agar streak dilution method; assay type: functional
# [2] = tested on: Escherichia coli; test: Antimicrobial activity against Escherichia coli MTCC 739 at 100 ug/ml by paper-disk diffusion method; assay type: functional, organism-based
# [3] = tested on: Klebsiella pneumoniae; test: Antimicrobial activity against Klebsiella pneumoniae MTCC 109 at 100 ug/ml by paper disk diffusion method; assay type: functional, organism-based
# [4] = tested on: Bacillus cereus; test: Antimicrobial activity against Bacillus cereus MTCC 619 by paper disk diffusion method; assay type: functional
# [5] = tested on: Aspergillus clavatus; test: Antimicrobial activity against Aspergillus clavatus MTCC 1323 by paper disk diffusion method; assay type: functional
# [6] = tested on: Aspergillus niger; test: Antimicrobial activity against Aspergillus niger MTCC 282 by agar streak dilution method; assay type: functional
# [7] = tested on: Staphylococcus aureus; test: Antimicrobial activity against Staphylococcus aureus MTCC 96 by paper-disk diffusion method; assay type: functional
# [8] = tested on: Pseudomonas aeruginosa; test: Antimicrobial activity against Pseudomonas aeruginosa MTCC 741 by paper disk diffusion method; assay type: functional
# [9] = tested on: Aspergillus niger; test: Antimicrobial activity against Aspergillus niger MTCC 282 by paper-disk diffusion method; assay type: functional
# [10] = tested on: Candida albicans; test: Antimicrobial activity against Candida albicans MTCC 183 by agar streak dilution method; assay type: functional
# [11] = tested on: Pseudomonas aeruginosa; test: Antimicrobial activity against Pseudomonas aeruginosa MTCC 741 by agar streak dilution method; assay type: functional
# [12] = tested on: Proteus vulgaris; test: Antimicrobial activity against Proteus vulgaris MTCC 1771 by paper disk diffusion method; assay type: functional
# [13] = tested on: Salmonella typhi; test: Antimicrobial activity against Salmonella enterica subsp. enterica serovar Typhi MTCC 733 by paper disk diffusion method; assay type: functional
# [14] = tested on: Bacillus cereus; test: Antimicrobial activity against Bacillus cereus MTCC 619 by agar streak dilution method; assay type: functional
# [15] = tested on: Aspergillus fumigatus; test: Antimicrobial activity against Aspergillus fumigatus MTCC 343 at 100 ug/ml by paper-disk diffusion method; assay type: functional, organism-based
# [16] = tested on: Shigella flexneri; test: Antimicrobial activity against Shigella flexneri MTCC 1457 at 100 ug/ml by paper-disk diffusion method; assay type: functional, organism-based
# [17] = tested on: Staphylococcus aureus; test: Antimicrobial activity against Staphylococcus aureus MTCC 96 by agar streak dilution method; assay type: functional
# [18] = tested on: Mycobacterium tuberculosis; test: Antimicrobial activity against Mycobacterium tuberculosis H37Rv at 100 ug/ml by BACTEC MGIT method; assay type: functional, organism-based
# [19] = tested on: Proteus vulgaris; test: Antimicrobial activity against Proteus vulgaris MTCC 1771 by agar streak dilution method; assay type: functional
# [20] = tested on: Candida albicans; test: Antimicrobial activity against Candida albicans MTCC 183 by paper-disk diffusion method; assay type: functional
# [21] = tested on: Mycobacterium tuberculosis; test: Antimicrobial activity against Mycobacterium tuberculosis H37Rv by BACTEC MGIT method; assay type: functional; conditions: Mycobacterium tuberculosis, H37Rv
# [22] = tested on: Mycobacterium tuberculosis; test: Antimicrobial activity against Mycobacterium tuberculosis H37Rv by Lowenstein and Jensen method; assay type: functional; conditions: for MIC: Mycobacterium tuberculosis, H37Rv
# [23] = tested on: Salmonella typhi; test: Antimicrobial activity against Salmonella enterica subsp. enterica serovar Typhi MTCC 733 by agar streak dilution method; assay type: functional
# [24] = tested on: Escherichia coli; test: Antimicrobial activity against Escherichia coli MTCC 739 by agar streak dilution method; assay type: functional
# [25] = tested on: Aspergillus fumigatus; test: Antimicrobial activity against Aspergillus fumigatus MTCC 343 by agar streak dilution method; assay type: functional
# [26] = tested on: Aspergillus fumigatus; test: Antimicrobial activity against Aspergillus fumigatus MTCC 343 by paper-disk diffusion method; assay type: functional
# [27] = tested on: Escherichia coli; test: Antimicrobial activity against Escherichia coli MTCC 739 by paper disk diffusion method; assay type: functional
# [28] = tested on: Shigella flexneri; test: Antimicrobial activity against Shigella flexneri MTCC 1457 by paper disk diffusion method; assay type: functional
# [29] = tested on: Shigella flexneri; test: Antimicrobial activity against Shigella flexneri MTCC 1457 by agar streak dilution method; assay type: functional
# [30] = tested on: Klebsiella pneumoniae; test: Antimicrobial activity against Klebsiella pneumoniae MTCC 109 by paper disk diffusion method; assay type: functional
# [31] = tested on: Pseudomonas aeruginosa; test: Antimicrobial activity against Pseudomonas aeruginosa MTCC 741 at 100 ug/ml by paper disk diffusion method; assay type: functional, organism-based
# [32] = tested on: Klebsiella pneumoniae; test: Antimicrobial activity against Klebsiella pneumoniae MTCC 109 by agar streak dilution method; assay type: functional
compound,measurement,setting,value
N#Cc1ccc(Nc2nc(Oc3ncnc4ccccc34)nc(N3CCN(c4ccccn4)CC3)n2)cc1C(F)(F)F,MIC,[1],100 µg/mL
same,inhibition zone (IZ),[2],inactive
same,inhibition zone (IZ),[3],inactive
same,inhibition zone (IZ),[4],24 mm
same,inhibition zone (IZ),[5],20 mm
same,MIC,[6],100 µg/mL
same,inhibition zone (IZ),[7],22 mm
same,inhibition zone (IZ),[8],21 mm
same,inhibition zone (IZ),[9],21 mm
same,MIC,[10],100 µg/mL
same,MIC,[11],100 µg/mL
same,inhibition zone (IZ),[12],21 mm
same,inhibition zone (IZ),[13],21 mm
same,MIC,[14],25 µg/mL
same,inhibition zone (IZ),[15],inactive
same,inhibition zone (IZ),[16],inactive
same,MIC,[17],50 µg/mL
same,inhibition,[18],inactive
same,MIC,[19],100 µg/mL
same,inhibition zone (IZ),[20],21 mm
same,MIC,[21],> 6.25 µg/mL
same,inhibition (percent inhibition),[22],96%
same,MIC,[22],200 µg/mL
same,MIC,[23],100 µg/mL
N#Cc1ccc(Nc2nc(Oc3ncnc4ccccc34)nc(N3CCN(C(c4ccccc4)c4ccccc4)CC3)n2)cc1C(F)(F)F,MIC,[1],100 µg/mL
same,inhibition zone (IZ),[3],inactive
same,inhibition zone (IZ),[4],24 mm
same,inhibition zone (IZ),[5],21 mm
same,MIC,[6],100 µg/mL
same,inhibition zone (IZ),[7],25 mm
same,inhibition zone (IZ),[8],22 mm
same,inhibition zone (IZ),[9],21 mm
same,MIC,[24],100 µg/mL
same,MIC,[10],100 µg/mL
same,MIC,[11],50 µg/mL
same,inhibition zone (IZ),[12],21 mm
same,inhibition zone (IZ),[13],23 mm
same,MIC,[25],100 µg/mL
same,MIC,[14],100 µg/mL
same,inhibition zone (IZ),[16],inactive
same,MIC,[17],25 µg/mL
same,inhibition,[18],inactive
same,MIC,[19],100 µg/mL
same,inhibition zone (IZ),[26],23 mm
same,inhibition zone (IZ),[27],23 mm
same,inhibition zone (IZ),[20],21 mm
same,MIC,[21],> 6.25 µg/mL
same,inhibition (percent inhibition),[22],97%
same,MIC,[22],62.5 µg/mL
same,MIC,[23],100 µg/mL
CC(=O)N1CCN(c2nc(Nc3ccc(C#N)c(C(F)(F)F)c3)nc(Oc3ncnc4ccccc34)n2)CC1,MIC,[1],12.5 µg/mL
same,inhibition zone (IZ),[28],22 mm
same,MIC,[29],100 µg/mL
same,inhibition zone (IZ),[4],26 mm
same,inhibition zone (IZ),[5],24 mm
same,MIC,[6],25 µg/mL
same,inhibition zone (IZ),[7],27 mm
same,inhibition zone (IZ),[8],27 mm
same,inhibition zone (IZ),[30],25 mm
same,inhibition zone (IZ),[9],24 mm
same,inhibition zone (IZ),[31],inactive
same,MIC,[24],6.25 µg/mL
same,MIC,[10],50 µg/mL
same,MIC,[11],12.5 µg/mL
same,MIC,[32],12.5 µg/mL
same,inhibition zone (IZ),[12],25 mm
same,inhibition zone (IZ),[13],24 mm
same,MIC,[25],25 µg/mL
same,MIC,[14],6.25 µg/mL
same,MIC,[17],12.5 µg/mL
same,inhibition,[18],inactive
same,MIC,[19],12.5 µg/mL
same,inhibition zone (IZ),[26],24 mm
same,inhibition zone (IZ),[27],28 mm
same,inhibition zone (IZ),[20],24 mm
same,MIC,[21],> 6.25 µg/mL
same,inhibition (percent inhibition),[22],96%
same,MIC,[22],12.5 µg/mL
same,MIC,[23],25 µg/mL
COc1ccc(N2CCN(c3nc(Nc4ccc(C#N)c(C(F)(F)F)c4)nc(Oc4ncnc5ccccc45)n3)CC2)cc1,MIC,[1],6.25 µg/mL
same,inhibition zone (IZ),[28],23 mm
same,MIC,[29],50 µg/mL
same,inhibition zone (IZ),[4],25 mm
same,inhibition zone (IZ),[5],25 mm
same,MIC,[6],6.25 µg/mL
same,inhibition zone (IZ),[7],27 mm
same,inhibition zone (IZ),[8],27 mm
same,inhibition zone (IZ),[30],25 mm
same,inhibition zone (IZ),[9],25 mm
same,inhibition zone (IZ),[31],inactive
same,MIC,[24],6.25 µg/mL
same,MIC,[10],12.5 µg/mL
same,MIC,[11],12.5 µg/mL
same,MIC,[32],12.5 µg/mL
same,inhibition zone (IZ),[12],26 mm
same,inhibition zone (IZ),[13],25 mm
same,MIC,[25],6.25 µg/mL
same,MIC,[14],6.25 µg/mL
same,MIC,[17],6.25 µg/mL
same,inhibition,[18],inactive
same,MIC,[19],6.25 µg/mL
same,inhibition zone (IZ),[26],25 mm
same,inhibition zone (IZ),[27],28 mm
same,inhibition zone (IZ),[20],25 mm
same,MIC,[21],> 6.25 µg/mL
same,inhibition (percent inhibition),[22],99%
same,MIC,[22],25 µg/mL
same,MIC,[23],25 µg/mL
